Experiments:
[1] = tested on: DU-145; assay: In vitro inhibition of DU145 (human prostate cancer) cell growth.; type: functional
[2] = tested on: MCF7; assay: Concentration required to inhibit growth of human breast (MCF-7) cell line; type: functional
[3] = tested on: ACHN; assay: Concentration required to inhibit growth of human renal (ACHN) cell line; type: functional
[4] = tested on: Mus musculus; assay: (§1) Anticancer activity after implantation of HT-29 human adeno carcinoma xenograft in mice at a dose of 300 mg/kg; type: functional; set-up: reference not given here
[5] = tested on: Mus musculus; assay: as §1; type: functional
[6] = tested on: NCI-H522 (Homo sapiens); assay: Concentration required to inhibit growth of human lung (H522) cell line
[7] = tested on: Mus musculus; assay: Anticancer activity after implantation of HT-29 human adeno carcinoma xenograft in mice at a dose of 300 mg/kg; 0/6; type: functional
[8] = tested on: SK-OV-3; assay: Concentration required to inhibit growth of human ovarian (SK-OV3) cell line; type: functional
[9] = tested on: OVCAR-8; assay: Concentration required to inhibit growth of human ovarian (OVCAR8) cell line; type: functional
[10] = tested on: NCI/ADR-RES; assay: in vitro inhibition of MCF-7/ADR (human breast cancer) cell growth.; type: functional
[11] = tested on: SW-620; assay: Concentration required to inhibit growth of human colon (SW620) cell line; type: functional
[12] = tested on: U-251; assay: Concentration required to inhibit growth of human CNS (U251) cell line; type: functional
[13] = tested on: PC-3; assay: Concentration required to inhibit growth of human prostate (PC3) cell line; type: functional
[14] = tested on: HT-29; assay: Concentration required to inhibit growth of human colon (HT-29) cell line; type: functional
[15] = tested on: UACC-62; assay: Concentration required to inhibit growth of human melanoma (UACC62) cell line; type: functional
[16] = tested on: Mus musculus; assay: Anticancer activity after implantation of HT-29 human adeno carcinoma xenograft in mice at a dose of 300 mg/kg; 1/6; type: functional

| Compound | GI50 [1] [µM] | GI50 [2] [µM] | GI50 [3] [µM] | Mean body weight [4] [%] | inhibition in vivo at 300 mg/kg [5] [%] | GI50 [6] [µM] | Mortality [7] | GI50 [8] [µM] | GI50 [9] [µM] | GI50 [10] [µM] | GI50 [11] [µM] | GI50 [12] [µM] | GI50 [13] [µM] | GI50 [14] [µM] | GI50 [15] [µM] | Mortality [16] |
| --- | --- | --- | --- | --- | --- | --- | --- | --- | --- | --- | --- | --- | --- | --- | --- | --- |
| COc1cc2ncnc(Nc3ccc(CS(=O)(=O)/C=C/c4ccc(Cl)cc4Cl)cc3)c2cc1OC | 1.4 | 11 | 15 | 12 | 68 | 6 | 0 | 2 | 2 | 24 | 2 | 13 | 5 | 6 | 21 |  |
| O=S(=O)(/C=C/c1ccc(Cl)cc1Cl)Cc1ccc(Nc2ncnc3ccc(Br)cc23)cc1 | 2 | 4 | 0.1 | 4 | 22 | 8 |  | 1 | 3 | > 100 | > 100 | 4 | 4 | 28 | 2 | 1 |
| O=S(=O)(/C=C/c1ccc(Cl)cc1Cl)Cc1ccc(Nc2ncnc3ccccc23)cc1 | 3 | 4 | 0.1 | 7 | 22 | 12 | 0 | 2 | 4 | 5 | 14 | 4 | 19 | 24 | 2 |  |

Reference: ChEMBL document CHEMBL1146712, “Synthesis and biological evaluation of [4-(2-phenylethenesulfonylmethyl)phenyl]-quinazolin-4-yl-amines as orally active anti-cancer agents” (2004)
